Values quoted from earlier work in patent US8563014B2, “Modafinil oral lyophilizate” (Teva Sante, priority 2004, dated 2013).

How the values were obtained:
[1] = system: monkeys; details: single administration
[2] = system: mice; details: single administration

In the case of `NC(=O)C[S+]([O-])C(c1ccccc1)c1ccccc1` (centres unmarked) [modafinil, 2-(benzhydrylsulfinyl)acetamide], the Nocturnal activity [1] is given as “increased nocturnal activity” and the Locomotor activity [2] is given as “increased locomotor activity”.
